Our source for the IC50 values is ChEMBL document CHEMBL1212849, “The design, synthesis, and evaluation of 8 hybrid DFG-out allosteric kinase inhibitors: a structural analysis of the binding interactions of Gleevec, Nexavar, and BIRB-796” (Bioorg Med Chem, 2010).

Assay [1] concerns the target Tyrosine-protein kinase ABL1 (Mus musculus, UniProt P00520).
Description: Inhibition of mouse recombinant N-terminal His6-tagged Abl by radiometric kinase assay
For assay [2], the target named is Serine/threonine-protein kinase B-raf (Homo sapiens, UniProt P15056).
Description: Inhibition of human recombinant full-length GST-tagged B-Raf by radiometric kinase assay
The target in assay [3] is Mitogen-activated protein kinase 14 (Homo sapiens, UniProt Q16539). The assay is described as follows: Inhibition of human recombinant full-length N-terminal GST-tagged p38alpha expressed in Escherichia coli by radiometric kinase assay.
Sequence of Mitogen-activated protein kinase 14 (Q16539 whole entry): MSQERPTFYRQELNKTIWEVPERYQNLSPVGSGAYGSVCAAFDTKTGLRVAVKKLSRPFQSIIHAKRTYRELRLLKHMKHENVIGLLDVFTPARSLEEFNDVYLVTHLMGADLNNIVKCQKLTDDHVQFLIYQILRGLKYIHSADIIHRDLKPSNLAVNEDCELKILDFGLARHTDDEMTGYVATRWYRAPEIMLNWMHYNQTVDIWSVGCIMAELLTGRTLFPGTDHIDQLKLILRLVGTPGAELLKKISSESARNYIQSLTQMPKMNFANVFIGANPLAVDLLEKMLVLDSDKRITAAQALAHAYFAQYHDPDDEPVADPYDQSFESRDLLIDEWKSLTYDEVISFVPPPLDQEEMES

Sequence of Serine/threonine-protein kinase B-raf (P15056 whole entry): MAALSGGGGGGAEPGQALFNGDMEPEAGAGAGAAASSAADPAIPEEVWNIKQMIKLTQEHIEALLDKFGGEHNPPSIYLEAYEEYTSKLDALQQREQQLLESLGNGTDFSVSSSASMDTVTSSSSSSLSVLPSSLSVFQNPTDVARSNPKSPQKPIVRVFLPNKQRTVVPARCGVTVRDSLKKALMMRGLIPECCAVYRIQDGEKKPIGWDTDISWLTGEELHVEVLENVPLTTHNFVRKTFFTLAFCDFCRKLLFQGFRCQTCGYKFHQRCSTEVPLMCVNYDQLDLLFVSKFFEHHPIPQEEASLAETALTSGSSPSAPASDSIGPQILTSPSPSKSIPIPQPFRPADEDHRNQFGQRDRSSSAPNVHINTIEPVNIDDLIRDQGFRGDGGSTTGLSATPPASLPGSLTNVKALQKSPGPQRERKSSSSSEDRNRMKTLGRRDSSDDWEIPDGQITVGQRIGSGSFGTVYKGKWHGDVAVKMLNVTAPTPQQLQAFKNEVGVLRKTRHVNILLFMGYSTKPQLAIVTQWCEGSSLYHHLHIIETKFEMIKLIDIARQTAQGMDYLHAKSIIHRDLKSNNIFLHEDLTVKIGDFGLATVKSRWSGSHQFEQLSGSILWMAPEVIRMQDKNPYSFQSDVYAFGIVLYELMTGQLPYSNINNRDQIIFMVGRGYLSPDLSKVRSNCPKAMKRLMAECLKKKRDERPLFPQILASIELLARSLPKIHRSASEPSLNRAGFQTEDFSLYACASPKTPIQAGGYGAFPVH
Sequence of Tyrosine-protein kinase ABL1 (P00520 whole entry): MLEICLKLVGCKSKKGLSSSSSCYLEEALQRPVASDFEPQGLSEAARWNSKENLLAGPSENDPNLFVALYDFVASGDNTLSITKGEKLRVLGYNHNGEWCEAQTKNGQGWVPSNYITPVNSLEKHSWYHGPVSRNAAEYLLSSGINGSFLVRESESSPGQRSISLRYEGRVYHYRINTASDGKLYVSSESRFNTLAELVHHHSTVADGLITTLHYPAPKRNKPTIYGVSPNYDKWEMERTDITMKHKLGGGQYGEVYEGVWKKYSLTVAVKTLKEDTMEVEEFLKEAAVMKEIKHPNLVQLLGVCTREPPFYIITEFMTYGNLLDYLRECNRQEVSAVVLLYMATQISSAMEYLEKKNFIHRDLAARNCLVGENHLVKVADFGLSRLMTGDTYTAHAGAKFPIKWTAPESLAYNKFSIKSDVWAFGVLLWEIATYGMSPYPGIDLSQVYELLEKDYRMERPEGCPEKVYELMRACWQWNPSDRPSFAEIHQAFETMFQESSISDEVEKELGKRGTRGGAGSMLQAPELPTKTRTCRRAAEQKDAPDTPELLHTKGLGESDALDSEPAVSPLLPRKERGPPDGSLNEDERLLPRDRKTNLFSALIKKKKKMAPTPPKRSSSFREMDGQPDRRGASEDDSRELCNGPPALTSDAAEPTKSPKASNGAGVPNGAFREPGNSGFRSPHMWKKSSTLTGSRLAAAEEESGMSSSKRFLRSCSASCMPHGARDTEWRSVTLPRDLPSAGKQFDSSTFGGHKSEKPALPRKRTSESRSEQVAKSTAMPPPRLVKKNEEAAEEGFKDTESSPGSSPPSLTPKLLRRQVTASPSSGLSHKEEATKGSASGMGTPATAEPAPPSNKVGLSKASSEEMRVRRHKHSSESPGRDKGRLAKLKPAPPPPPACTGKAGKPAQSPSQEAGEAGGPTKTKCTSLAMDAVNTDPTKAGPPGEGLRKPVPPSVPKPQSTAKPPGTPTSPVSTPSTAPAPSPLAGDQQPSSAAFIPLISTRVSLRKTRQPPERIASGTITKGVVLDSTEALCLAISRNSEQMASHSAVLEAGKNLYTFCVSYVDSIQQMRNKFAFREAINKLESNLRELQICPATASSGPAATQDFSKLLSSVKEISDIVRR

As usually defined, the IC50 is the concentration that gives 50% inhibition. On to `CNC(=O)c1cc(Oc2ccc(NC(=O)c3ccc(CN4CCN(C)CC4)cc3)cc2)ccn1`, for which the figures for the IC50 in assay [1], in assay [2] and in assay [3] were greater than 30000 nM, greater than 100000 nM and greater than 100000 nM, respectively.

`CN1CCN(Cc2ccc(C(=O)Nc3ccc(OCCN4CCOCC4)c4ccccc34)cc2)CC1`: the results for the IC50 in assay [1], in assay [2] and in assay [3] were greater than 30000 nM, greater than 100000 nM and greater than 100000 nM, respectively.

As for `Cc1ccc(NC(=O)Nc2ccc(Cl)c(C(F)(F)F)c2)cc1Nc1nccc(-c2cccnc2)n1`, the IC50 in assay [1] was less than 1 nM; in assay [2], 180 nM; in assay [3], 18.4 nM.

With `O=C(Nc1ccc(Cl)c(C(F)(F)F)c1)Nc1ccc(OCCN2CCOCC2)c2ccccc12`, the IC50 was 12900 nM in assay [1] and less than 1 nM in assay [2].

Take `Cc1ccc(-n2nc(C(C)(C)C)cc2NC(=O)Nc2ccc(C)c(Nc3nccc(-c4cccnc4)n3)c2)cc1`: the IC50 is 8.6 nM in assay [1], 414 nM in assay [2] and 189 nM in assay [3].

For the compound `CNC(=O)c1cc(Oc2ccc(NC(=O)Nc3cc(C(C)(C)C)nn3-c3ccc(C)cc3)cc2)ccn1`, the IC50 came to 62.6 nM in assay [1] and 237 nM in assay [2].

On to `CNC(=O)c1cc(Oc2ccc(NC(=O)Nc3ccc(CN4CCN(C)CC4)cc3)cc2)ccn1`, for which the IC50 in assay [1] is 572 nM; in assay [2], greater than 100000 nM; in assay [3], greater than 100000 nM.

With `O=C(Nc1ccc(OCCN2CCOCC2)cc1)Nc1ccc(Cl)c(C(F)(F)F)c1`, the results for the IC50 in assay [1], in assay [2] and in assay [3] were 244 nM, 92.3 nM and 105 nM, respectively.
